By melting point is commonly meant the temperature, or range, at which the solid turns liquid.

`Cn1cc(-c2cc3cccnc3[nH]2)c2ccc(C(=O)NCCO)cc21` gave a melting point of 264 to 267 °C.
Next, `COC(c1ccccc1)C(C)([N+](=O)[O-])[N+](=O)[O-]` (centres undefined): 53 to 55 °C; `CC(C)CCC(=O)N1CCN(C(=O)OC(C)(C)C)CC1`: 88 to 90.2 °C.
Under `CSc1ncc2cc(Oc3ccc(F)cc3F)c(NS(C)(=O)=O)nc2n1` stands 199 to 204 °C; under `CCOc1c(C)c(C)c(O)c(CNCCOc2cc(C)ccc2C(C)C)c1C`, 99 to 101 °C.
`CCOC(=O)CCc1cnc(-c2cc3cccc(N(C)S(=O)(=O)c4cccs4)c3[nH]2)s1`: the melting point was 126 to 127 °C.
Next, `CC1=NN=C(C=Cc2ccccc2F)c2cc3c(cc2C1)OCO3`: 138 to 141 °C.
Next, `N#CCS(=O)(=O)CC(=O)O`: 104 to 105 °C; `Cc1cccc(Nc2cc(Nc3ccc(OCCO)cc3)ncn2)c1`: 196 to 199 °C.
As to `CCOC(=O)c1cc(-n2c(-c3ccccc3)cc3c2CCc2ccccc2-3)ccc1O`, the melting point was in the range of 134 to 135 °C.
Under `O=c1[nH]c(-c2ccccc2)cn1CCO` stands 203 to 205 °C; under `Cc1cc(NS(=O)(=O)c2nc3nc(Cl)cc(Cl)n3n2)ccc1Br`, 232 to 234 °C.
Take `CC1(C)CC(=O)C(C(=O)Nc2ccc(Cl)c(C(F)(F)F)c2)C(=O)C1`: the melting point fell in the range of 128 to 131 °C.
In turn, `O=C(Nc1ccccc1F)c1ccc(CN2C(=O)C3(COc4cc5c(cc43)OCCO5)c3ccccc32)cc1` (centres undefined) displayed a melting point of 245 to 251 °C.
Take `O=C(Nc1ccc(O)cn1)C(CC1CCCC1)c1ccc(Cl)c(Cl)c1` (centres undefined): the melting point lay in the range of 79 to 81 °C.
Under `COCCOc1ccc(CCCO)c(Oc2ncc(C(F)(F)F)cc2Cl)c1` stands 70 to 71 °C; under `Cc1cc(C)c2c(-c3cc(C(C)(C)C)c(O)c(C(C)(C)C)c3)n[nH]c2n1`, 257 to 258 °C.
Under `Cc1cc(Cl)n2nc(CN=[N+]=[N-])nc2n1` stands 130 to 132 °C; under `Cn1c(C(F)(F)F)cc(=O)n(-c2cc(OCc3ccc(Cl)cc3Cl)c(Cl)cc2F)c1=O`, 112 to 120 °C; under `O=S(=O)(CCl)N(Cc1cccnc1)C1CCCCC1`, 67 to 72 °C.
With `CCc1nnc(NC(=O)C2c3ccccc3Oc3ccccc32)o1`, the melting point lay in the range of 256 to 257 °C.
Turning to `CCOCc1nc2c(N)nc3ccc(CCc4ccccc4)cc3c2n1CC(C)(C)O`, the melting point lay in the range of 175 to 176 °C.
Next, `COc1cc2c(cc1Nc1ncc(Cl)c(Nc3ccccc3S(=O)(=O)N(C)C)n1)CCN(CC(=O)N1CCN(C)CC1)CC2`: 140 °C.
Under `COc1cc(C(=O)OCCCCBr)ccc1O` stands 83 to 88 °C.
Under `N#CC1(N2C(=O)C3=C(CCCC3)C2=O)CCCCC1` stands 55.5 to 56.5 °C; under `COc1ccc(N2CCN(CCC3OCCc4c(Br)cccc43)CC2)cc1` (centres undefined), 105 to 106 °C.
With `O=S(=O)(c1ccccc1)N1CCC(C(O)(c2ccc(F)cc2)C2CCCCC2)CC1` (centres undefined), the melting point is 106 to 109 °C.
Next, `OC(CCN1CCN(c2ccccc2)CC1)c1ccccc1` (centres undefined): 85 to 87 °C; `CC(C)CN1CCC(CCC(=O)c2cc(Cl)c(N)[nH]c2=O)CC1`: 175 °C.
On to `COCC#Cc1cc2c(O)c(C(=O)NCc3ccc(Cl)cc3)cnc2s1`, for which the melting point is 215 to 218 °C.
For the molecule `OC(c1cccc(Oc2ccccc2)n1)C(F)(F)F` (centres undefined), the melting point fell in the range of 51.5 to 53.5 °C.
Consider `CCCn1nc2c(N)nc3ncccc3c2c1CC`, for which the melting point is 303 to 305 °C.
`CCOC(=O)CC1(c2ccccc2)CNC(=O)C1` (centres undefined): the melting point was in the range of 49 to 51 °C.
As to `COC(=O)N=P(c1ccccc1)(c1ccccc1)c1ccccc1CN(C)C`, the melting point was 95 to 97 °C.
Next, `CCOC(=O)C1C2C(=O)N(Cc3ccccc3)C(=O)C12` (centres undefined): 190 °C; `CCCCc1nc(-n2cccc2)c(C(=O)OCC)[nH]1`: 74 to 77 °C.
In the case of `CC(C)(C)C1CCCC(=Cc2ccc(Cl)cc2)C1(O)Cn1cncn1` (centres undefined), the melting point was determined as 171 °C.
Next, `Cn1c(-c2ccc(-c3ccccn3)cc2)cnc1[C@H](Cc1ccccn1)N(C=O)c1cc2cc(Cl)ccc2o1`: 175 to 180 °C; `CCOC(=O)c1sc(C2=C(C)NC(C)=C(C(=O)OC)C2c2ccccc2[N+](=O)[O-])nc1C` (centres undefined): 191 to 192 °C; `CC(C)(C)OC(=O)N[C@H]1C[C@@H](CON2C(=O)c3ccccc3C2=O)C1`: 120 to 122 °C.
Under `CC1COCC(C)N1c1cccc([N+](=O)[O-])c1` (centres undefined) stands 127 to 128 °C; under `Cc1cccc2c1CN(S(C)(=O)=O)CCS2`, 128 to 130 °C; under `CNC(Cc1ccccc1N)C(=O)c1ccc(OC)c(OC)c1` (centres undefined), 128 to 131 °C.
`O=C(O)/C=C(\CC(O)CCCCCCc1ccc(Cl)cc1Cl)C(=O)O` (centres undefined) displayed a melting point of 92 to 93 °C.
`CC(=O)OCC(=O)C1CCC2C3CCC4CC(O)C(N5CCOC(C)(C)C5)CC4(C)C3C(=O)CC12C` (centres undefined) showed a melting point of 158 to 160 °C.
Under `CCCCCCCCCCCCCCOc1ccc(N)cc1` stands 65 to 68 °C.
Next, `O=C(O)C1CCc2ccccc2N1C(=O)CCS` (centres undefined): 130 to 132 °C.
`CN(Cc1ccccc1)C(=O)/C=C/c1cc(Cl)cnc1N` registered a melting point of 106 to 109 °C.
Turning to `O=C(O)[C@H](CS)N(Sc1nc2cc(Cl)ccc2s1)C(=O)Cc1ccccc1`, the melting point fell in the range of 155 to 158 °C.
Molecule `NS(=O)(=O)c1cc(C(=O)c2csc3ccccc23)ccc1Cl` yielded a melting point of 154 to 156 °C.
Under `CCc1cc2c(C(=O)O)ccc(OC)c2o1` stands 215 to 216 °C.
Next, `CC1(N)CN(c2c(F)cc3c(=O)c(C(=O)O)cn(C4CC4)c3c2F)C1`: 298 to 300 °C; `CCCOCCn1c(CN2CCN(C)CC2)nc2ccccc21`: 73 to 75.5 °C; `O=C(O)c1ccc(-c2c[nH]c(=O)cn2)cc1`: above 300 °C.
Next, `Cc1ccc([N+](=O)[O-])c2c1CC(C)O2` (centres undefined): 69 to 71 °C; `CCCCCCCCCCCCCCOc1cc(OCCCOc2ccc(OCc3ccccc3)cc2)cc(C(=O)O)c1`: 77 to 79 °C; `O=C(Nc1ccc(C(=O)O)cc1)OCc1nccn1-c1cc2cc(C(=O)O)c(=O)[nH]c2cc1Cl`: 249 to 251 °C.
For `Cc1ccc(S(=O)(=O)N(F)C(C)(C)C)cc1`, the melting point was in the range of 59 to 62.5 °C.
Under `Cc1c(N2C[C@H](CF)[C@H](N)C2)c(F)cc2c(=O)c(C(=O)O)cn(C3CC3)c12` stands 160 to 165 °C; under `c1ccc(COc2ccc(CCCCn3ccnc3)cc2)cc1`, 97 to 98 °C; under `CCC(=O)C1=CCC(c2c(C)c(C)c3c(c2Cl)CC(C)(C)C3)CC1=O` (centres undefined), 74 to 75 °C.
Under `CCCN(CCC)Cc1nnc(-c2ncn3c2CN(C)C(=O)c2c-3ccc(F)c2Cl)o1` stands 128 to 130 °C.
As for `CN(CC(=O)NO)S(=O)(=O)Cc1cccc(C(F)(F)F)c1`, the melting point was in the range of 128 to 129 °C.
Next, `CCOC(=O)C(Oc1ccc(Cl)cc1)c1ccc(Oc2ccc(Cl)cc2)cc1` (centres undefined): 52.5 to 54 °C; `CCOC(=O)C1=Cc2cc(Br)ccc2SC1`: 87 °C.
Under `Cc1c(Cl)ccc2c(=O)n(CCCN3CC=C(c4ccc(Cl)cc4)CC3)c(=O)[nH]c12` stands 208 to 210 °C; under `CC(C(=O)O)c1ccc2c(c1)C(=O)Cc1ccccc1C2` (centres undefined), 134 to 136 °C; under `COC(=O)Cc1cc(Br)c(Sc2ccc(OC)c(C(C)C)c2)c(Br)c1`, 73 to 76 °C.
In turn, `COC(=O)C(C(C)C)N(C)S(=O)(=O)c1ccc(-c2ccc(NC(=O)c3cc4ccccc4o3)cc2)cc1` (centres undefined) registered a melting point of 67 to 69 °C.
Under `O=C(O)c1cnc(NCc2cccs2)nc1-c1ccccc1` stands 212 to 213 °C; under `CC(C)(C)c1nc2cc(N3CCOCC3)c([N+](=O)[O-])cc2s1`, 119 to 121 °C.
As for `Cc1ccc(C2c3c(C)c(Br)c(C)c(C4OCCO4)c3OC2(C)C)cc1` (centres undefined), the melting point was in the range of 169 to 172 °C.
Next, `Cc1cc(C(=O)O)n(-c2ccc(C=Cc3ccccc3)c(C#N)c2)n1`: 226 °C; `Cc1cc(C2=NOC(c3cc(Cl)cc(Cl)c3)(C(F)(F)F)C2)ccc1C(=O)Nc1ccc(Cl)cn1` (centres undefined): 129 to 132 °C.
Under `Cn1c2sc(C(=O)O)cc2c2cccc(Cl)c21` stands 233 to 234 °C.
Next, `C=C(C)COc1cc(C)c(NC=O)c(C)c1CC(=C)C`: 109 °C; `Cc1cccc(C2(O)CCC(=O)N2C)c1` (centres undefined): 128 to 130 °C.
The molecule `Cc1ccncc1OC1SCC(O)C(O)C1O` (centres undefined) yielded a melting point of 236 °C.
Next, `O=c1oc2c([N+](=O)[O-])c(O)c(O)cc2cc1-c1ccccc1`: 195 to 210 °C.
For `CCOC(=O)c1cnc(N2CCn3ccnc3C2)nc1NCc1ccc(OC)c(Cl)c1`, the melting point fell in the range of 179 to 182 °C.
In the case of `Cc1cc(C)c(Nc2nc(C)ccc2S(=O)(=O)c2ccc(OCc3ccc(F)cc3)cc2)c(C)c1`, the melting point was 178 to 180 °C.
Under `COc1ccc2c(=O)c3cccc(OCc4ccccc4)c3oc2c1` stands 158 °C; under `Cc1nnc2n1-c1sc(C(C)OC(=O)C=Cc3ccccc3)cc1C(c1ccccc1Cl)=NC2` (centres undefined), 122 to 125 °C.
Turning to `NC(=O)c1cc(-c2ccncc2)nnc1Cl`, the melting point was above 300 °C.
Under `CCOc1ccnc(CSc2nc3ccc(C(F)(F)F)cc3[nH]2)c1C` stands 173 to 177 °C.
In turn, `CC(=O)Cc1ccc(-c2ccc(Cl)cc2)cc1` came in with a melting point of 79 to 81 °C.
Next, `Cc1cc(Cl)nnc1-c1cccc(C#N)c1`: 153 to 155 °C.
Next, `COc1cc2ncc(C#N)c(Nc3cc(C)c(C)cc3N)c2cc1OC`: 260 to 262 °C.
`N=C(N)NC(=O)C[C@H]1c2cc(C(F)(F)F)ccc2C(=O)N1CC(F)(F)F` returned a melting point of 122 °C.

Source of the values: a melting point compilation (Tetko et al.; mined from patent text by program, amines drawn as free bases though some values may be those of a salt).
